Data from patent US9480675B2, “Method for increasing muscle growth by blocking sirtuin activity” (THE REGENTS OF THE UNIVERSITY OF CALIFORNIA, priority 2013, dated 2016).

System: wild type mice
Assay: 14 days of overload (synergist ablation of GTN and SOL) with daily injection of SIRT1 inhibitor; plantaris muscle hypertrophy
Type: in vivo
Source text: The plantaris (PLN) muscle in test subjects was overloaded by removal of the gastrocnemius (GTN) and soleus (SOL) muscles, termed synergist ablation. Briefly, test animals were anaesthetized and the area above the incision shaved and sterilized. The SOL and GTN were isolated and severed at the Achilles tendon. The complete SOL and the distal two thirds of the GTN were removed leaving the PLN muscle and their blood and nerve supply intact. The overlying skin was sutured with 6-0 vicryl and the animal was then given the analgesic and moved to a temperature-controlled environment to recover. […] Animals were monitored on a daily basis for signs of pain or post-operative infection. […] On the day of collection, animals were anaesthetized and overloaded and contralateral control muscles were rapidly removed, rinsed in PBS, all connective/scar tissue was removed using a dissection microscope, then the muscles were snap frozen in liquid nitrogen, and stored at −80° C. until processed.
To determine whether the effect of SIRT1 on overload-induced muscle hypertrophy required genetic ablation or whether pharmacological ablation of SIRT1 activity could mimic the effect of the knockout, GTN and SOL muscles of wild type mice were removed and half of the mice received daily injections of the SIRT1 inhibitor Splitomycin. There were 14 days of overload performed in wild type mice concurrent with daily injection of either saline (CON) or Splitomycin (Split).

O=C1CCc2c(ccc3ccccc23)O1 [Splitomycin]
effectiveness of therapeutic dose (in words) (25 mg/kg body weight per day): effective
effect on basal muscle mass (14 days of daily injection): without affecting basal muscle mass
effect on muscle hypertrophy (in words) (wild type mice, 14 days of overload, daily injection, saline (CON) vs Splitomycin (Split), FIG. 6): increases muscle hypertrophy
more muscle hypertrophy than vehicle (saline) injection (wild type mice, 14 days of overload, daily injection, versus saline/vehicle (FIG. 6)): 65%
